Where two headings read alike, the source gives them in different places.
Assays:
[1] = animal model of pancreatic pain; cited from earlier work
[2] = system: LPS-induced endotoxemia; experiment: Plasma cytokines in mice after LPS-induced endotoxemia; format: in vivo; details: parallel experiment, treated before LPS; versus vehicle
Procedure: A study was performed with the purpose to quantitatively determine a panel of 24 cytokines in the plasma of mice at different time points after LPS-induced endotoxemia and to compare the profiles obtained with those of CT327 pre-treated endotoxemic mice.
The animals were divided into two experimental groups (55 mice/group) that were treated following this schedule:
At time 0 both groups received a dose of LPS corresponding to 4 mg/kg, i.p.
The “treated” experimental group received a single dose of CT327 corresponding to 105.56 mg/kg, i.p. This dose was administered 15 minutes before LPS endotoxemia induction (time 0). At the same time the “control” group received an equivalent volume of vehicle solution.
Each experimental group was divided into 11 sub-groups with 5 mice/sub-group. Each sub-group was sacrificed at different time points and blood samples collected.
Time points for blood sample collection were: • Time: time 0 (basal); before LPS treatment • Time: +30 minutes; after LPS treatment • Time: +1 hours; after LPS treatment • Time: +2 hours; after LPS treatment • Time: +3 hours; after LPS treatment • Time: +6 hours; after LPS treatment • Time: +12 hours; after LPS treatment • Time: +18 hours; after LPS treatment • Time: +24 hours; after LPS treatment • Time: +48 hours; after LPS treatment • Time: +72 hours; after LPS treatment
Blood samples were collected in sodium citrate tubes (100 μl sodium citrate 0.1 M/900 μl of blood) and centrifuged at 1000 g at 4° C. for 10 minutes. Plasma samples were collected and 50 μl/sample were frozen at −80° C. until testing for multiple cytokines profiling. The samples were analyzed in double through the Bio-Plex System (Bio-Rad) by using the 23-plex panel at the Dept. of Genetics, Biology and Biochemistry, Torino University, led by Prof. Silengo. Plasma levels of the following cytokines were determined: IL-1a, IL-1b, IL-2, IL-3, IL-4, IL-5, IL-6, IL-10, IL-12(p40), IL-12(p70), IL-17, G-CSF, GM-CSF, IFN-γ, KC, MIP-1-α, RANTES, TNF-α, IL-9, IL-13, eotaxin, MCP-1, MIP-1-α.

[3] = Acute single dose toxicity study in mice, intraperitoneal route; format: in vivo; details: for LD50 at 7 days: Balb/c, mouse, in vivo, ip, single dose intraperitoneal
Procedure: (§1) Observations, which included clinical signs and behavioral changes, were performed every 30 minutes in the first 6 hour following administration, and twice a day during the following 7 days.

[4] = system: transplanted psoriatic plaques; details: 2 weeks of therapy, double-blinded, placebo-controlled; cited from earlier work
[5] = PK study in mice, single dermal administration; format: in vivo
Procedure: (§2) At each sampling time, approximately 0.4 mL blood samples were collected from the ventral aorta of each animal using an insulin syringe, under deep ether anesthesia, and transferred into polyethylene Eppendorf tubes containing 50 μL of 5% EDTA water solution to prevent blood clotting. Blood samples were kept in ice until centrifugation at 1400 g for 5 min. in a refrigerated centrifuge (2-4° C.). From each tube plasma samples were then recovered, put in new Eppendorf tubes and frozen at −20° C. which until the HPLC analysis.
Computer fitting of the data from each experimental group was then performed by NCOMP version 3.1 program (P. B. Laub et al., Journal of Pharmaceutical Sciences, 1996, 85(4):393-395). Values for area under the plasma concentration-time profile, T1/2, Tmax, Cmax, etc. were calculated by conventional formulas previously described (Gibaldi et al., Pharmacokinetics, 1982, Marcel Dekker, Inc., New York).

[6] = system: human keratinocytes; experiment: MTT-assay, antiproliferative activity on keratinocytes; format: cell-based
Procedure: A metabolic MTT-assay was performed as test of the cellular vitality. The MTT-assay was performed using a well known and validated protocol, whereby the results are quantified through a spectrophotometric lecture, the number of living cells being directly proportional to the quantity of the formazan product formed as reduction product of MTT ([3-(4,5-dimethylthiazol-2-yl)-2,5-diphenyltetrazoliumbromid]) (Mosmann T., Rapid colorimetric assay for cellular growth and survival: Application to proliferation and cytotoxicity assays. J. Immunol. Methods. 1983, Dec. 16, 65(1-2):55-63). In the present study, the MTT-assay was performed on subconfluent cultures of keratinocytes seeded in 96-well plates for cellular culture (8000 cells/well). After the cells have been exposed to the substance which has to be analyzed, the cells are incubated for 4 hours at 37° C. with MTT (0.05%) in serum-free keratinocyte growth medium (KGM Clonetics Corp. San Diego, Calif., USA). After solubilisation of the cells with detergents, the formation of the dyestuff formazan is detected using a spectrophotometer for multi-well plate at 540 nm. The results are given as optical density unit (OD). […]

[7] = PK study in mice, repeated dermal administration; format: in vivo; details: repeated dermal QD for 5 days, 1.03 mg/kg (about 2 μmol/kg), t = 3 h after last administration
Procedure: as §2

[8] = Acute single dose toxicity study in mice, oral administration; details: both sexes, Balb/c, mouse, in vivo
Procedure: as §1
Similar results have been obtained following oral administration.

[9] = male, Balb/c, mouse, topical or ocular, 10 umol/kg, single dermal, plasma

For `COC(=O)[C@]1(O)C[C@@H]2O[C@@]1(C)n1c3ccccc3c3c4c(c5c6ccccc6n2c5c31)C(=O)NC4` [Compound K-252a, K-252a], the hypersensitivity [1] is listed as “attenuates hypersensitivity”, the “IFN-γ secretion in plasma” value [2] is listed as “significant reduction” and the “MCP-1 secretion in plasma” value [2] is listed as “significant reduction”. The “MIP-α secretion in plasma” value [2] was “significant reduction”, the “RANTES secretion in plasma” value [2] was “significant reduction” and the “TNF-α secretion in plasma” value [2] was “significant reduction”. For the same compound, the LD50 at 7 days ([3]; female mice, read-out: LD50) was 41.4 mg/kg, the LD50 at 7 days ([3]; male mice, read-out: LD50) was 37.7 mg/kg and the LD50 at 7 days ([3]; both sexes, males and females together, read-out: average LD50) was 39 mg/kg. The survival ([3]; female mice, 45 mg/kg, five per group) was “One female survived out of the five”, the survival ([3]; female mice, 60 mg/kg, five per group) was “one” and the survival ([3]; female mice, doses higher than 60 mg/kg) was “lethal to all female mice”. The survival ([3]; female mice, lowest dose (30 mg/Kg)) was “survived”, the survival ([3]; male mice, 30 mg/Kg) was “survived” and the survival ([3]; male mice, all doses above 30 mg/Kg, within the first 22 hours after dosing) was “found dead”. For the same compound, the sedation ([3]; males and females, lowest dose (30 mg/Kg), disappeared within 8-10 hours) was “very mild/mild sedation”, the psoriasis improvement [4] was “significantly improved” and the half-life ([5]; male, Balb/c, mouse, plasma, topical or ocular, 5.075 mg/kg, single dermal administration, read-out: half-life) was 1.05 h. For the same compound, the concentration at 3 h ([5]; male, Balb/c, mouse, plasma, topical, single dermal administration at same dosage (2 μmol/kg) and time point (3 hours), value±95% CI) was 72.9 nM, the half-life ([5]; male, Balb/c, mouse, topical or ocular, 10 umol/kg, single dermal, 10 μmol/kg, plasma, read-out: Terminal T1/2) was 1.05 h and the AUC(0-inf) [5, 9] was 4.75 µM·h. For the same compound, the Cmax [5, 9] was 908 nM, the Tmax [5, 9] was 3 h and the “time detectable in plasma after administration” value ([5]; single dermal administration) was at least 9 h. For the same compound, the “concentration with statistically significant antiproliferative action” value ([6]; any contact time (1, 2, 4 h), cell counting after 48 h) was 200 nM, the antiproliferative activity ([6]; contact 1, 2, 4 h, cell counting after 96 h) was “obtained for any tested concentration and any contact time” and the concentration at 3 h ([7]; male, Balb/c, mouse, plasma, topical, 1.03 mg/kg) was 110 nM. The concentration at 3 h ([7]; read-out: Mean Plasma Concentration) was 110.19 nM and the LD50 at 7 days [8] was 78 mg/kg.
